From publication PMC10600007, “Structures illustrate step-by-step mitochondrial transcription initiation” (Nature, 2023)
One block for each molecule: values may come before it.

What was measured:
[1] = molecular target: T1, y-mtRNAP–Mtf1 (ΔN100 y-mtRNAP with Mtf1) (Saccharomyces cerevisiae, UniProt P13433); experiment: cryo-EM structure (IC2, […] Å); type: binding; settings: pre-melted 33-bp bubble promoter DNA; Mg2+; pH 7.0; 4 °C; two GTP at +1 (P site) and +2 (N site) of polymerase active site
T1 construct: gene RPO41; RPO41 lacking 100 N-terminal residues, His6 tag removed by TEV; Mtf1 His6-tagged (removal not described); both from E. coli; complex assembled on pre-melted promoter DNA; with Mitochondrial transcription factor 1
T1 sequence (P13433 101-1351): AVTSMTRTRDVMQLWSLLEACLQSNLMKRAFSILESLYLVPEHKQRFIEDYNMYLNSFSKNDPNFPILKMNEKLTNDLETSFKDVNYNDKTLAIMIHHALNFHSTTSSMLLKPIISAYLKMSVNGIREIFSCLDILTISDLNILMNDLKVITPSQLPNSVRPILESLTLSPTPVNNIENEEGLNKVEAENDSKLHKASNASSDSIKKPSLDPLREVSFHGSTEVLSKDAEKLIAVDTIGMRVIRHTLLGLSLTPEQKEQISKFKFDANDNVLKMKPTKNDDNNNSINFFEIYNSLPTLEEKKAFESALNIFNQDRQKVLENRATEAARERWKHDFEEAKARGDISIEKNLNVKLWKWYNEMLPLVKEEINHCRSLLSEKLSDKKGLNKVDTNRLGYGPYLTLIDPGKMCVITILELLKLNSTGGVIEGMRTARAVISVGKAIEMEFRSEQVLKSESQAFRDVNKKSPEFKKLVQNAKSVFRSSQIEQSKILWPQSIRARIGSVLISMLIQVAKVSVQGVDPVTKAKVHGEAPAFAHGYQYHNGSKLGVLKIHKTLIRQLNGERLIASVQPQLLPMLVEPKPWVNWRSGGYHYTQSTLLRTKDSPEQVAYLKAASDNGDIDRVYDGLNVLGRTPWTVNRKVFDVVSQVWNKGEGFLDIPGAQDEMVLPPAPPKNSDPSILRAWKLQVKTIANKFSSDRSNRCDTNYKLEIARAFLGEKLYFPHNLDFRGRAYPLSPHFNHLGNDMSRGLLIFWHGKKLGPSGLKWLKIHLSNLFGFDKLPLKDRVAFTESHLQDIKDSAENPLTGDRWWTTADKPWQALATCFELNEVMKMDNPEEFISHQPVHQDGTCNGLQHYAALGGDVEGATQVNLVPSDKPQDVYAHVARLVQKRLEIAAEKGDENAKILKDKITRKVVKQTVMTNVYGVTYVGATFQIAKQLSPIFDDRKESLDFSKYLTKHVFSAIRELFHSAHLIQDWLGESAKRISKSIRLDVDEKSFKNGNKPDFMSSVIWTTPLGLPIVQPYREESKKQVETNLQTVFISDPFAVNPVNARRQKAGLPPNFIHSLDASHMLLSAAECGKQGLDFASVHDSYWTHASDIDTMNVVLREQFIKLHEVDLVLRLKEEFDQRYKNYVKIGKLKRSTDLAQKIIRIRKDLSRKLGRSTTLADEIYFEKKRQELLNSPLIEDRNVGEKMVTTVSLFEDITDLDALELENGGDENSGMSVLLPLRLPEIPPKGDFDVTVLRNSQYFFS
T1 sequence (P14908 2-341 partner): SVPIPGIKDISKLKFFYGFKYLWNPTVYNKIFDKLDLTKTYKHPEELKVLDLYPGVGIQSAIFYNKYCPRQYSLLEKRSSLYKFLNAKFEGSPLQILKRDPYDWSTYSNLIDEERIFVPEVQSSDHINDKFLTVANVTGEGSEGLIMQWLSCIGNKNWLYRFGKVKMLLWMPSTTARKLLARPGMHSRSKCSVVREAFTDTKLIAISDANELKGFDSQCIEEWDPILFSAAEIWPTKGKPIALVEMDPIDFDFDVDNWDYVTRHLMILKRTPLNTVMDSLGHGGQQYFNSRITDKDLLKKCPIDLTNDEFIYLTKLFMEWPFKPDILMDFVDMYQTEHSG

[2] = molecular target: T2, ΔN100 y-mtRNAP (yeast mitochondrial RNA polymerase, Rpo41, 100 amino-terminal residues deleted) (S. cerevisiae, UniProt P13433 101-1351); experiment: cryo-EM structure; PmIC of ΔN100 y-mtRNAP, Mtf1 and pre-melted bubble promoter DNA (molar ratio 1:1.2:1.2, 2 h, 4 °C), purified by SEC, then incubated with NTPs or pppGpG 2 h at 4 °C to give IC2, IC4-IC8 and IC8'; 50 mM Bis-tris propane pH 7.0, 100 mM NaCl, 5 mM MgCl2, 1 mM EDTA, 2 mM DTT; settings: both partners purified
T2 construct: S. cerevisiae mitochondrial RNA polymerase Rpo41 (y-mtRNAP), UniProt P13433; 100 amino-terminal residues deleted; end residue S1351; Plasmid ProEXHTB; In the structures the chain is traced only from I386 (A407 in IC4) to S1351 with gaps; source: E. coli BL21 RIL Codon Plus, purified (DEAE/Ni-Sepharose, heparin, TEV cleavage, second Ni-Sepharose flow-through)
T2 sequence (looked up): T1 sequence (P13433 101-1351)

Molecule: Nc1nc2c(ncn2[C@@H]2O[C@H](COP(=O)(O)OP(=O)(O)OP(=O)(O)O)[C@@H](O)[C@H]2O)c(=O)[nH]1 [GTP]
cryo-EM structure (IC2, 3.47 Å) [1]: IC2 was captured with two GTP molecules bound at the transcription start site poised for catalysis

binding result [2]: binds
B1: Mtf1 (yeast mitochondrial transcription factor) (natural protein, S. cerevisiae)
chain: T1 sequence (P14908 2-341 partner)
notes: S. cerevisiae Mtf1, mitochondrial transcription factor; wild type; traced in the structures from S2 to at most G341 (end residue); Plasmid pTrcHisC; No removal of the His6 tag is described; N-terminal domain residues 1-252, C-terminal domain residues 255-341 are named, so the whole protein is likely; source: E. coli BL21, purified (DEAE/Ni-Sepharose, heparin-Sepharose)
